Results reported in US7067653B2, “Porphyrin Based neuton capture agents for cancer therapy” (The Regents of the University of California, priority 2000, dated 2006).

Key:
[1] = system: tumor; conditions: drugs currently in BNCT clinical trials; cited from earlier work
[2] = system: human normal keratinocyte line HaCaT; assay: Intracellular localization by confocal fluorescence microscopy, HaCaT cells; type: cell-based; conditions: 2 μM, 6 or 24 hours
Description: (§1) Confocal fluorescence microscopy was used to examine the intracellular localization of nido-carboranylporphyrin 4 in live cells. Rat 9L tumor cells and human normal keratinocyte line HaCaT were used in these studies. HaCaT cells were included in these particular experiments because they adhere and spread nicely on glass cover slips, thus facilitating the imaging process. Cells exposed to 2 μM concentration of porphyrin 4 for either 6 or 24 hours were examined at a magnification of 200× for intracellular fluorescence using excitation/emission wavelengths optimized for this type of compound. […] In both cases, 100% of the cells were labeled and the cells exposed to drug for 24 hours were slightly brighter than those exposed for 6 hours. […] No fluorescent signal was detectable in the plasma membranes of isolated individual cells nor in the intercellular junctions of confluent cells.

[3] = system: 9L cells; assay: Dark toxicity assay in rat 9L gliosarcoma cells; type: cell-based; conditions: exposure for 24 hours
Description: (§2) In vitro studies using rat 9L gliosarcoma cells, mouse B16 melanoma cells and human U-373MG glioblastoma cells have been performed.
(§3) Human glioblastoma U373 MG and mouse melanoma B16 cells were obtained from ATCC. The rat gliosarcoma line was kindly provided by the UCSF Brain Tumor Research Group. All cells were maintained in log phase monolayer cultures with RPMI 1640 supplemented with 10% fetal bovine and 2 mM glutamine.
(§4) Cells were seeded in 96-well culture plates, allowed to settle and attach for 24–48 hours, and then triplicate wells were exposed to two fold serial dilutions of test compounds at concentrations up to 250 μM. Compounds 4, 6, 10, and the Zn(II) complex of 10 in crystalline form were carefully weighed and dissolved in 100% DMSO to prepare stock solutions; subsequent dilutions were done directly into the culture medium just prior to administration to cells. After short term (2 hours) or long term (24–48 hours) exposure, cells were washed and wells refilled with fresh culture medium. For dark toxicity trials cells were allowed to proliferate for an additional 48–72 hours. For phototoxicity trials, washed cells were irradiated for 10 minutes with broad spectrum (600–700 nm) red light and then returned to an incubator for 48–72 hours.

[4] = system: 9L, U-373 MG and B16 cells; assay: Phototoxicity assay, broad spectrum (600–700 nm) red light; type: cell-based; conditions: irradiation with broad spectrum light 10 minutes
Description: as §3, §4
As observed for the dark toxicity experiments, the corresponding Zn(II) complex […] was about 20-fold less phototoxic. […] As with dark toxicity, B16 cells were more resistant that the other two cell types.

[5] = system: Rat 9L tumor cells; assay: Intracellular localization by confocal fluorescence microscopy, 9L cells; type: cell-based; conditions: 2 μM, 6 or 24 hours
Description: as §1

[6] = system: U-373 MG cells; assay: Dark toxicity assay in human glioblastoma U-373 MG cells; type: cell-based; conditions: exposure for 24 hours
Description: as §2, §3, §4

| Compound | tumor selectivity compared with the carboranylporphyrins (tumor to normal brain ratio) [1] | IC50 [3] | IC50 [6] | other results |
| --- | --- | --- | --- | --- |
| N[C@@H](Cc1ccc(B(O)O)cc1)C(=O)O [BPA, L-4-dihydroxy-borylphenylalanine] | lower selectivities | – | – | – |
| disodium mercapto-closo-dodecaborate [BSH] | lower selectivities | – | – | – |
| meso-tetra[4-(1-methyl-nido-carboranyl)methylphenyl]porphyrin tetrapotassium salt [Compound 4] | – | ~150 µM | ~150 µM | cells labeled ([2]; HaCaT cells): 100%; intracellular localization (fluorescence) ([2]; live HaCaT cells): predominantly perinuclear; IC50 ([4]; 2 hours exposure): 50 µM; IC50 ([4]; 24 hours exposure): 1.5 µM; cells labeled ([5]; 9L cells): 100%; intracellular localization (fluorescence) ([5]; live 9L cells): predominantly perinuclear |
| meso-tetra[3-(1-methyl-nido-carboranyl)methylphenyl]porphyrin tetrapotassium salt [Compound 10] | – | ~150 µM | ~150 µM | – |
